Results as given in patent publication US20240252688A1, “COMPOSITIONS AND METHODS FOR ENHANCED PROTEIN PRODUCTION” (HDT Bio Corp., priority 2021, published 2024).
Where a name gives a salt, the structure may show the parent alone.

How the values were obtained:
A549-Dual cells [1] = test: Single-point kinase inhibitor library screen: nLuc expression from NP-1+mRNA-nLuc in IFN-treated cells; type: cell-based, human; conditions: compound 50 μM pre-treatment, NP-1+mRNA 20 ng/well + IFN; for fold induction at 50 µM: Homo sapiens, read-out: fold nLuc over RNA + IFN
Protocol: (§1) The cells produce secreted embryonic alkaline phosphatase (SEAP), under the control of the interferon beta […] minimal promoter fused to five NF-κB binding sites. The cells also secrete lucia luciferase under the control of IFIT2 promoter.
To measure protein expression from mRNA, which is the primary readout for compound down selection, mRNA encoding a secreted version of nanoluciferase (mRNA-nLuc) was used. Protein expression was measured via a luminometer using standard techniques.
As additional criterion, expression in compound treated cells was compared relative to mRNA-transfected cells without IFN (“RNA only”) (data not shown).
A library of small molecule kinase inhibitors was screened for the ability to enhance expression of mRNA-encoded genes when co-delivered with mRNA.

A549-Dual cells [2] = test: Single-point screen: cell viability by CellTiter-Glo; conditions: A549-Dual cells incubated overnight with compound at 50 μM, then NP-1+mRNA 20 ng/well + IFN 1:50
Protocol: Finally, cell lysates were assayed with the CellTiter-GLO® assay (Promega) to obtain a luminescent-based measure of cell viability. In summary, the readouts from the high throughput screen included the primary measure of nLuc protein expression and three secondary readouts: IFIT, NF-κB and cell viability.
For each assay, A549-dual cells were plated at a seeding density of about 5×10^4 cells per well. Cells were incubated overnight with compounds at 50 microMolar (μM) in 1% v/v dimethyl sulfoxide (DMSO). For control wells, 1% DMSO was added to each well. After about 24 hours, the culture medium was removed, and cells were transfected with NP-1+mRNA at 20 ng/mRNA/well in Opti-MEM® media (Thermofisher). Interferon (IFN) was diluted to 1:50 in all test wells except for the RNA only wells and media only wells. Anti-IFN was diluted 1:1000 in “RNA+anti-IFN+IFN” wells. Cells were incubated for 4 hours, and culture medium was added to the Opti-MEM® medium. After 24 hours, assay supernatants were collected and analyzed for nLuc expression, IFIT2 (qLuc), and NFκB (qBLUE-SEAP™, InvivoGen) activation. Cells were then lysed, and cell viability was determined by CellTiter-Glo® (Promega) assay.

NF-κB = test: Single-point screen: NFκB activation (SEAP reporter); type: cell-based, human; conditions: A549-Dual cells, compound 50 μM pre-treatment, NP-1+mRNA 20 ng/well + IFN; for fold induction at 50 µM: Homo sapiens, 24 h, read-out: fold NFkB over IFN
Description: as §1

IFIT2 = test: Single-point screen: IFIT2 activation (Lucia luciferase, QUANTI-Luc); type: cell-based, human; conditions: A549-Dual cells, compound 50 μM pre-treatment, NP-1+mRNA 20 ng/well + IFN; for fold induction at 50 µM: Homo sapiens, 24 h, read-out: fold IFIT over IFN
Description: as §1

fold IFIT over IFN (IFIT2) | SMILES | fold induction at 50 µM (A549-Dual cells [1]) | % viability (A549-Dual cells [2]) | fold induction at 50 µM (NF-κB) | fold induction at 50 µM (IFIT2) | fold nLuc over RNA + IFN (A549-Dual cells [1]) | fold NFkB over IFN (NF-κB)
– | C[C@@H](Oc1ccc2[nH]nc(/C=C/c3cnn(CCO)c3)c2c1)c1c(Cl)cncc1Cl [LY2874455, 2-[4-[(E)-2-[5-[(1R)-1-(3,5-dichloropyridin-4-yl)ethoxy]-1H-indazol-3-yl]ethenyl]pyrazol-1-yl]ethanol] | 150 | 58% | 0.3 | 0.09 | – | –
– | Cc1cc(F)c(C(=O)Nc2cccc(-c3nncn3C(C)C)n2)cc1-n1cnc(C2CC2)c1 [Selonsertib, 5-(4-cycloproplirnidazol-1-yl)-2-fluoro-4-methyl-N-[6-(4-propan-2-yl-1,2,4-triazol-3-yl)pyridin-2-yl]benzamide] | 112 | – | 0.9 | 1.43 | – | –
1.93 fold | Cn1nc(C(C)(C)C)cc1NC(=O)Nc1ccc(Oc2ccncc2)cc1 [MAPK13-IN-1, 1-(5-tert-buty-2-methylpyrazol-3-yl)-3-(4-pyridin-4-yloxyphenyl)urea] | – | 59% | – | – | 207.89 fold | 0.66 fold
1.09 fold | Cc1cc(Nc2cc(Cl)nc(Oc3ccc([N+](=O)[O-])cc3)n2)n[nH]1 [Autophinib, 6-chloro-NV-(5-methyl-1H-pyrazol-3-yl)-2-(4-nitrophenoxy)pyrindin-4-amine] | – | 49% | – | – | 128.89 fold | 0.78 fold
– | C[C@H](Nc1cc(-c2cnn(C)c2)cc(Nc2cnccn2)n1)c1ccc(F)cc1.Cl [Ilginatinib hydrochloride, 6-N-[(1S)-1-(4-fluorophenyl)ethyl]-4-(1-methylpyrazol-4-yl)-2-N-pyrazin-2-ylpyridine-2,6-diamine; hydrochloride] | – | – | 1.39 | 3.17 | 484.10 fold | –
– | CN1CC[C@@H](c2c(O)cc(O)c3c(=O)cc(-c4ccc(C(F)(F)F)cc4Cl)oc23)[C@@H]1CO [Voruciclib (hydrochloride), 2-[2-chloro-4-(trifluoromethyl)phenyl]-5,7-dihydroxy-8-[(2R,3S)-2-(hydroxymethyl)-1-methylpyrrolidin-3-yl]chromen-4-one] | 274 | – | 0.63 | 0.8 | – | –
– | CN1CC[C@H](c2c(O)cc(O)c3c(=O)cc(-c4ccc(C(F)(F)F)cc4Cl)oc23)[C@H]1CO [(2S,3R)-Voruciclib (hydrochloride), 2-[2-chloro-4-(trifluoromethyl)phenyl]-5,7-dihydroxy-8-[(2S,3R)-2-(hydroxymethyl)-1-methylpyrrolidin-3-yl]chromen-4-one; hydrochloride] | 113 | – | 0.26 | 1.09 | – | –
– | CC[C@H](CO)Nc1nc(NCc2ccccc2)c2ncn(C(C)C)c2n1 [Seliciclib, (2R)-2-[[6-(benzylamino)-9-propan-2-ylpurin-2-yl]amino]butan-1-ol] | 118 | 45% | 0.55 | 1.32 | – | –
– | O=C1NCCSc2c1sc1ccc(O)cc21 [kb NB 142-70, 9-hydroxy-3,4-dihydro-2H-[1]benzothiolo[2,3-f][1,4]thiazepin-5-one] | 187 | 52% | 0.61 | 2.31 | – | –
– | C[C@H](Nc1cc(-c2cnn(C)c2)cc(Nc2cnccn2)n1)c1ccc(F)cc1 [Ilginatinib, 6-N-[(1S)-1-(4-fluorophenyl)ethyl]-4-(1-methylpyrazol-4-yl)-2-N-pyrazin-2-ylpyridine-2,6-diamine] | – | – | 1.12 | 1.89 | 115.95 fold | –
– | COc1cc(Nc2ncc3ccn(-c4cccc(CCC#N)c4)c3n2)cc(OC)c1OC [Casein Kinase II Inhibitor IV, 3-[3-[2-(3,4,5-trimethoxyanilino)pyrrolo[2,3-d]pyrimidin-7-yl]phenyl]propanenitrile] | 126 | 18% | 0.46 | 0.79 | – | –
– | Cn1nccc1Nc1nccc(-c2ccn([C@H](CO)c3ccc(Cl)c(F)c3)c(=O)c2)n1 [Ravoxertinib hydrochloride, 1-[(1S)-1-(4-chloro-3-fluorophenyl)-2-hydroxyethyl]-4-[2-[(2-methylpyrazol-3-yl)amino]pyrimidin-4-yl]pyridin-2-one] | 162 | 96% | 1.17 | 0.24 | – | –
– | Cc1nc2c(NCc3cccc(S(C)(=O)=O)c3)nccn2c1-c1ccc(O)c(F)c1 [BF738735, 2-fluoro-4-[2-methyl-8-[(3-methylsulfonylphenyl)methylamino]imidazo[1,2-a]pyrazin-3-yl]phenol] | 239 | 93% | 0.62 | 0.37 | – | –
0.65 fold | O=C1Nc2ccccc2/C1=C/c1ccccn1 [GSK-3 inhibitor 1] | – | 90% | – | – | 225.93 fold | 1.00 fold
– | Cc1ncc(-c2ccnc(Nc3ccc(S(C)(=O)=O)cc3)n2)n1C(C)C [AZD-5438, 4-(1-isopropyl-2-methyl-1H-imidazol-5-yl)-N-(4-(methylsulfonyl)phenyl)pyrimidin-2-amine] | 353 | 46% | 0.38 | 2.39 | – | –
– | Cc1cc(O)c(-c2ccc([C@@H](C)CN)cc2)c2c1[nH]c(=O)c1sccc12 [OTS514, 9-[4-[(2R)-1-aminopropan-2-yl]phenyl]-8-hydroxy-6-methyl-5H-thieno[2,3-c]quinolin-4-one] | 349 | 66% | 0.35 | 0.4 | – | –
– | Cc1cnc(-c2cnc(NCCNc3ccc(C#N)cn3)nc2-c2ccc(Cl)cc2Cl)[nH]1 [CHIR-99021 (monohydrochloride), 6-[2-[[4-(2,4-dichlorophenyl)-5-(5-methyl-1H-imidazol-2-yl)pyrimidin-2-yl]amino]ethylamino]pyridine-3-carbonitrile] | 116 | – | 0.71 | 0.35 | – | –
– | Oc1cccc(Nc2ncc(F)c(Nc3cccc(O)c3)n2)c1 [Compound R112, 3-[[5-fluoro-2-(3-hydroxyanilino)pyrimidin-4-yl]amino]phenol] | 521 | 76% | 1.16 | 1.33 | – | –

SMILES | fold IFIT over IFN (IFIT2) | fold induction at 50 µM (A549-Dual cells [1]) | % viability (A549-Dual cells [2]) | fold induction at 50 µM (NF-κB) | fold induction at 50 µM (IFIT2) | fold nLuc over RNA + IFN (A549-Dual cells [1]) | fold NFkB over IFN (NF-κB)
Cc1[nH]ncc1-c1cc2nc([C@H]3CC4CCN3CC4)[nH]c(=O)c2s1 [(R)-Simurosertib] | 1.84 fold | – | 86% | – | – | 200.44 fold | 1.33 fold
COc1ccc(-c2c[nH]c3nccc(-c4ccsc4)c23)c(OC)c1 [ARN-3236, 3-(2,4-dimethoxyphenyl)-4-thiophen-3-yl-1-pyrrolo[2,3-b]pyridine] | 1.61 fold | – | 33% | – | – | 322.60 fold | 0.41 fold
